The source made the active and inactive calls. The rule behind the calls is not given here.
Legend:
BaF3 [1] = assay: Antiproliferative activity against mouse BaF3 cells stably expressing KIF5B-RET G810C mutant incubated for 72 hrs by CCK8 assay; type: functional, cell-based; conditions: BaF3, 72 h
BaF3 [2] = assay: Antiproliferative activity against mouse BaF3 cells stably expressing KIF5B-RET G810R mutant incubated for 72 hrs by CCK8 assay; type: functional, cell-based; conditions: BaF3, 72 h
BaF3 [3] = assay: Antiproliferative activity against mouse BaF3 cells stably expressing KIF5B-RET G810S mutant incubated for 72 hrs by CCK8 assay; type: functional, cell-based; conditions: BaF3, 72 h
BaF3 [4] = assay: Antiproliferative activity against mouse BaF3 cells stably expressing KIF5B-RET incubated for 72 hrs by CCK8 assay; type: functional, cell-based; conditions: BaF3, 72 h
BaF3 [5] = assay: Antiproliferative activity against mouse BaF3 cells stably expressing KIF5B-RET V804M mutant incubated for 72 hrs by CCK8 assay; type: functional, cell-based; conditions: BaF3, 72 h
BaF3 [6] = assay: PROTAC activity at VHL/KIF5B-RET (unknown origin) expressed in mouse BaF3 cells assessed as induction of RET degradation at 10 nM incubated for 24 hrs by immunoblot analysis relative to control; type: cell-based
[7] = Induction of apoptosis in mouse BaF3 cells stably expressing KIF5B-RET G810C mutant assessed as viable cells at 100 nM incubated for 48 hrs by Annexin V-FITC/PI staining based flow cytometry (reference value: 92.21 %); type: functional; conditions: read-out: Activity
BaF3 [8] = assay: Antiproliferative activity against mouse BaF3 cells stably expressing CCDC6-RET incubated for 72 hrs by CCK8 assay; type: functional, cell-based; conditions: BaF3, 72 h
[9] = Induction of apoptosis in mouse BaF3 cells stably expressing KIF5B-RET G810C mutant assessed as necrotic cells at 100 nM incubated for 48 hrs by Annexin V-FITC/PI staining based flow cytometry (reference value: 0.94 %); type: functional
[10] = Induction of apoptosis in mouse BaF3 cells stably expressing KIF5B-RET G810C mutant assessed as late apoptotic cells at 100 nM incubated for 48 hrs by Annexin V-FITC/PI staining based flow cytometry (reference value: 5.99 %); type: functional
[11] = Induction of apoptosis in mouse BaF3 cells stably expressing KIF5B-RET G810C mutant assessed as early apoptotic cells at 100 nM incubated for 48 hrs by Annexin V-FITC/PI staining based flow cytometry (reference value: 0.86 %); type: functional
BaF3 [12] = assay: Antiproliferative activity against mouse BaF3 cells stably expressing CCDC6-RET G810C mutant incubated for 72 hrs by CCK8 assay; type: functional, cell-based; conditions: BaF3, 72 h
BaF3 [13] = assay: Induction of degradation of KIF5B-RET (unknown origin) expressed in mouse BaF3 cells at 10 nM incubated for 24 hrs by immunoblot analysis relative to control; type: cell-based; conditions: Homo sapiens
BaF3 [14] = assay: Antiproliferative activity against mouse BaF3 cells stably expressing CCDC6-RET G810R mutant incubated for 72 hrs by CCK8 assay; type: functional, cell-based; conditions: BaF3, 72 h
BaF3 [15] = assay: Antiproliferative activity against mouse BaF3 cells stably expressing CCDC6-RET V804M mutant incubated for 72 hrs by CCK8 assay; type: functional, cell-based; conditions: BaF3, 72 h
BaF3 [16] = assay: PROTAC activity at CRBN/KIF5B-RET (unknown origin) expressed in mouse BaF3 cells assessed as induction of RET degradation at 10 nM incubated for 24 hrs by immunoblot analysis; type: cell-based
BaF3 [17] = assay: PROTAC activity at CRBN/KIF5B-RET (unknown origin) expressed in mouse BaF3 cells assessed as induction of RET degradation at 10 nM incubated for 24 hrs by immunoblot analysis relative to control; type: cell-based
[18] = target: Proto-oncogene tyrosine-protein kinase receptor Ret (Homo sapiens, UniProt P07949); assay: Inhibition of RET (unknown origin) preincubated for 10 mins followed by substrate/ATP addition measured after 30 mins by HTRF assay
Proto-oncogene tyrosine-protein kinase receptor Ret, sequence (P07949 whole entry): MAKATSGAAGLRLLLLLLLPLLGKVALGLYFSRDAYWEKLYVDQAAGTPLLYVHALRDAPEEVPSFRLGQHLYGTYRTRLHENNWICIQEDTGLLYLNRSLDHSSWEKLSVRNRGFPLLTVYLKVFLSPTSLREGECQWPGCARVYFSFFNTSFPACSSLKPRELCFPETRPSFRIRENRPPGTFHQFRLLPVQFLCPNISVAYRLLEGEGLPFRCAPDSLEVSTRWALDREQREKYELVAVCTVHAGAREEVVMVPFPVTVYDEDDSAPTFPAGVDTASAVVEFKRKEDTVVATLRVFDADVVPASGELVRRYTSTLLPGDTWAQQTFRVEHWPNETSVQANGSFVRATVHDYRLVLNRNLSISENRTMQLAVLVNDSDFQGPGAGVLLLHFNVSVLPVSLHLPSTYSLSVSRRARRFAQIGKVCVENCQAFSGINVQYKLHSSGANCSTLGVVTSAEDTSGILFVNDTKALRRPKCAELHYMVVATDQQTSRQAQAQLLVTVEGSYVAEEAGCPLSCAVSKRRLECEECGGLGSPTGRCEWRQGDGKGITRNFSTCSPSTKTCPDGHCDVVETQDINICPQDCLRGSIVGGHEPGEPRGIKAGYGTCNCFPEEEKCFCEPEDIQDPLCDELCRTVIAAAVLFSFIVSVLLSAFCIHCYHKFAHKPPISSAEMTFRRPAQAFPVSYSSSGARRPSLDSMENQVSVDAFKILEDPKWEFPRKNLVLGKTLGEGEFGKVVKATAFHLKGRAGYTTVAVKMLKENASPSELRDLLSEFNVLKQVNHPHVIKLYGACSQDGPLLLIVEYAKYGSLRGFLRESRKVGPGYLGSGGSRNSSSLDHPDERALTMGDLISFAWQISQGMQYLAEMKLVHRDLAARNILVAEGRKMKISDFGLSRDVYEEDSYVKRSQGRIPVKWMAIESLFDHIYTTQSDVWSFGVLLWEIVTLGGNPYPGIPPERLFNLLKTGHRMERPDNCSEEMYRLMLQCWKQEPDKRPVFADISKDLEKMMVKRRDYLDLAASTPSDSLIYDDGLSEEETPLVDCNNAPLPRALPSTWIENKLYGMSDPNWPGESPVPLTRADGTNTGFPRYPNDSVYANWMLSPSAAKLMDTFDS

SMILES	IC50 (BaF3 [1])	IC50 (BaF3 [2])	IC50 (BaF3 [3])	IC50 (BaF3 [4])	IC50 (BaF3 [5])	IC50 (BaF3 [8])	IC50 (BaF3 [12])	IC50 (BaF3 [14])	IC50 (BaF3 [15])	IC50 [18]	Activity (BaF3 [6])	viability at 0.1 µM [7]	Activity [9]	Activity [10]	Activity [11]	Activity (BaF3 [13])	Activity (BaF3 [16])	Activity (BaF3 [17])
COc1ccc(CN2C3CC2CN(c2ccc(-c4cc(N5CCN(C(=O)CCCCCCCCCCC(=O)N[C@H](C(=O)N6C[C@H](O)C[C@H]6C(=O)N[C@@H](C)c6ccc(-c7scnc7C)cc6)C(C)(C)C)CC5)cn5ncc(C#N)c45)cn2)C3)cn1	818 nM	1330 nM	552 nM	35.4 nM	85.3 nM						24%							
COc1ccc(CN2C3CC2CN(c2ccc(-c4cc(OCC(C)(C)O)cn5ncc(C#N)c45)cn2)C3)cn1 [SELPERCATINIB]	380 nM	690 nM	95.2 nM	7.7 nM	16.5 nM	4.2 nM	626 nM	365 nM	12.2 nM			90.7%	1.63%	6.67%	1.04%	0%		
COc1ccc(CN2C3CC2CN(c2ccc(-c4cc(N5CCN(C(=O)CCCCCCC(=O)N[C@H](C(=O)N6C[C@H](O)C[C@H]6C(=O)N[C@@H](C)c6ccc(-c7scnc7C)cc6)C(C)(C)C)CC5)cn5ncc(C#N)c45)cn2)C3)cn1	> 5000 nM	> 5000 nM	> 5000 nM	177 nM	372 nM						17%							
COc1ccc(CN2C3CC2CN(c2ccc(-c4cc(N5CCC(N6CCN(CCCC#Cc7cccc8c7CN(C7CCC(=O)N(C)C7=O)C8=O)CC6)CC5)cn5ncc(C#N)c45)cn2)C3)cn1 (configuration not stated)																	inactive	
COc1ccc(CN2C3CC2CN(c2ccc(-c4cc(N5CCN(C(=O)CCCCCCCCC(=O)N[C@H](C(=O)N6C[C@H](O)C[C@H]6C(=O)N[C@@H](C)c6ccc(-c7scnc7C)cc6)C(C)(C)C)CC5)cn5ncc(C#N)c45)cn2)C3)cn1	410 nM	> 5000 nM	216 nM	12.3 nM	36.5 nM						39%							
COc1ccc(CN2C3CC2CN(c2ccc(-c4cc(N5CCN(C(=O)CCCCC(=O)N[C@H](C(=O)N6C[C@H](O)C[C@H]6C(=O)N[C@@H](C)c6ccc(-c7scnc7C)cc6)C(C)(C)C)CC5)cn5ncc(C#N)c45)cn2)C3)cn1	> 5000 nM	> 5000 nM	> 5000 nM	309 nM	> 5000 nM						10%							
COc1ccc(CN2C3CC2CN(c2ccc(-c4cc(N5CCN(CCCCCCC(=O)N[C@H](C(=O)N6C[C@H](O)C[C@H]6C(=O)N[C@@H](C)c6ccc(-c7scnc7C)cc6)C(C)(C)C)CC5)cn5ncc(C#N)c45)cn2)C3)cn1	> 5000 nM	> 5000 nM	> 5000 nM	40.2 nM	983 nM						23%							
COc1ccc(CN2C3CC2CN(c2ccc(-c4cc(N5CCNCC5)cn5ncc(C#N)c45)cn2)C3)cn1	107 nM	770 nM	98.6 nM	5.6 nM	36.1 nM											0%		
COc1ccc(CN2C3CC2CN(c2ccc(-c4cc(N5CCN(CCCCCCCCC(=O)N[C@H](C(=O)N6C[C@H](O)C[C@H]6C(=O)N[C@@H](C)c6ccc(-c7scnc7C)cc6)C(C)(C)C)CC5)cn5ncc(C#N)c45)cn2)C3)cn1	522 nM	1880 nM	674 nM	14.2 nM	108 nM						38%							

Further lines, with some results ahead:

IC50 (BaF3 [1])	IC50 (BaF3 [2])	IC50 (BaF3 [3])	IC50 (BaF3 [4])	IC50 (BaF3 [5])	IC50 (BaF3 [8])	IC50 (BaF3 [12])	IC50 (BaF3 [14])	IC50 (BaF3 [15])	IC50 [18]	SMILES	Activity (BaF3 [6])	viability at 0.1 µM [7]	Activity [9]	Activity [10]	Activity [11]	Activity (BaF3 [13])	Activity (BaF3 [16])	Activity (BaF3 [17])
50.4 nM	376 nM	53.6 nM	1.8 nM	5.2 nM					0.329 nM	COc1ccc(CN2C3CC2CN(c2ccc(-c4cc(N5CCC(N6CCN(C(=O)CCCCCNc7cccc8c7C(=O)N(C7CCC(=O)NC7=O)C8=O)CC6)CC5)cn5ncc(C#N)c45)cn2)C3)cn1 (configuration not stated)								72%
254 nM	> 5000 nM	723 nM	86.8 nM	126 nM						COc1ccc(CN2C3CC2CN(c2ccc(-c4cc(N5CCN(CCC(=O)N[C@H](C(=O)N6C[C@H](O)C[C@H]6C(=O)N[C@@H](C)c6ccc(-c7scnc7C)cc6)C(C)(C)C)CC5)cn5ncc(C#N)c45)cn2)C3)cn1	29%							
322 nM	1110 nM	52.6 nM	2.8 nM	8.1 nM					0.215 nM	COc1ccc(CN2C3CC2CN(c2ccc(-c4cc(N5CCN(C6CN(c7ccc8c(c7)C(=O)N(C7CCC(=O)NC7=O)C8=O)C6)CC5)cn5ncc(C#N)c45)cn2)C3)cn1 (configuration not stated)								71%
149 nM	513 nM	76.1 nM	2.5 nM	11.3 nM					0.276 nM	COc1ccc(CN2C3CC2CN(c2ccc(-c4cc(N5CCC(N6CCN(C(=O)CCCNc7cccc8c7C(=O)N(C7CCC(=O)NC7=O)C8=O)CC6)CC5)cn5ncc(C#N)c45)cn2)C3)cn1 (configuration not stated)								62%
145 nM	1030 nM	35.7 nM	1.9 nM	11.5 nM					0.227 nM	COc1ccc(CN2C3CC2CN(c2ccc(-c4cc(N5CCN(CC6CN(c7ccc8c(c7)C(=O)N(C7CCC(=O)NC7=O)C8=O)C6)CC5)cn5ncc(C#N)c45)cn2)C3)cn1 (configuration not stated)								72%
190 nM	614 nM	86.1 nM	3.4 nM	14.2 nM						COc1ccc(CN2C3CC2CN(c2ccc(-c4cc(N5CCC(N6CCN(C(=O)CCCCCCCNc7ccc8c(c7)C(=O)N(C7CCC(=O)NC7=O)C8=O)CC6)CC5)cn5ncc(C#N)c45)cn2)C3)cn1 (configuration not stated)								58%
1410 nM	1640 nM	202 nM	13.3 nM	209 nM						COc1ccc(CN2C3CC2CN(c2ccc(-c4cc(N5CCN(C(=O)CCCNc6ccc7c(c6)C(=O)N(C6CCC(=O)NC6=O)C7=O)CC5)cn5ncc(C#N)c45)cn2)C3)cn1 (configuration not stated)								41%
198 nM	626 nM	89.8 nM	14.4 nM	15.3 nM						COc1ccc(CN2C3CC2CN(c2ccc(-c4cc(N5CCC(N6CCN(C(=O)CNc7cccc8c7C(=O)N(C7CCC(=O)NC7=O)C8=O)CC6)CC5)cn5ncc(C#N)c45)cn2)C3)cn1 (configuration not stated)								36%
182 nM	552 nM	78.3 nM	2.9 nM	13.1 nM					0.391 nM	COc1ccc(CN2C3CC2CN(c2ccc(-c4cc(N5CCC(N6CCN(C(=O)CCCCCNc7ccc8c(c7)C(=O)N(C7CCC(=O)NC7=O)C8=O)CC6)CC5)cn5ncc(C#N)c45)cn2)C3)cn1 (configuration not stated)								61%
126 nM	453 nM	62.1 nM	1.6 nM	13.7 nM					0.203 nM	COc1ccc(CN2C3CC2CN(c2ccc(-c4cc(N5CCN(C(=O)CCCCCCCNc6cccc7c6C(=O)N(C6CCC(=O)NC6=O)C7=O)CC5)cn5ncc(C#N)c45)cn2)C3)cn1 (configuration not stated)								73%
156 nM	724 nM	113 nM	4.3 nM	42.9 nM						COc1ccc(CN2C3CC2CN(c2ccc(-c4cc(N5CCC(N6CCNCC6)CC5)cn5ncc(C#N)c45)cn2)C3)cn1						0%		
852 nM	> 5000 nM	> 5000 nM	229 nM	279 nM						COc1ccc(CN2C3CC2CN(c2ccc(-c4cc(N5CCN(CCCCC(=O)N[C@H](C(=O)N6C[C@H](O)C[C@H]6C(=O)N[C@@H](C)c6ccc(-c7scnc7C)cc6)C(C)(C)C)CC5)cn5ncc(C#N)c45)cn2)C3)cn1	15%							
1320 nM	1210 nM	176 nM	16.5 nM	178 nM						COc1ccc(CN2C3CC2CN(c2ccc(-c4cc(N5CCN(C(=O)CNc6ccc7c(c6)C(=O)N(C6CCC(=O)NC6=O)C7=O)CC5)cn5ncc(C#N)c45)cn2)C3)cn1 (configuration not stated)								40%
216 nM	794 nM	105 nM	6.1 nM	17.2 nM						COc1ccc(CN2C3CC2CN(c2ccc(-c4cc(N5CCN(C(=O)CCCCCNc6cccc7c6C(=O)N(C6CCC(=O)NC6=O)C7=O)CC5)cn5ncc(C#N)c45)cn2)C3)cn1 (configuration not stated)								52%

— ChEMBL document CHEMBL6096698, “Discovery of a Selective and Orally Bioavailable RET Degrader with Effectiveness in Various Mutations” (J Med Chem, 2025)
